Results published in US20100069339A1, “NOVEL METHOD OF TREATMENT OF MALE SUB-FERTILITY” (BIOXELL S.P.A., priority 2006, published 2010).
“Also recorded” adds a separate entry of the source.

Columns and labels:
human BPH cells = assay: Inhibition of IL-8 production in human BPH cells by vitamin D compounds; format: cell-based; details: BPH cells stimulated with IL-17 10 ng/ml and interferon gamma 10 ng/ml; compounds at 1, 10 and 100 nM, 72 hours; ELISA
Protocol: Approximately 2000 human BPH cells were placed in wells of a standard 96 well plate and stimulated for 72 hours with IL-17 at 10 ng/ml and interferon gamma at 10 ng/ml and incubated with vitamin D compounds individually at concentrations of 1, 10 and 100 nM for 72 hours IL-8 production by the cells was measured by conventional two-site ELISA using human IL-8 ELISA set (BD Biosciences, San Diego, Calif.) according to the manufacturer's instructions.

IL-8 [1] = assay: Seminal IL-8 in CP/CPPS patients, randomized double-blind placebo controlled study; format: in vivo, human
Source text: We conducted a randomized, double-blind placebo controlled study in 121 patients with CP/CPPS. The primary objective of the study was to evaluate the effect of Compound A(150 mcg/die) after three months of treatment on the NIH score, a score encompassing pain, quality of life and lower urinary tract symptoms. As a secondary endpoint, we measured IL8 in the semen at baseline and at the end of the treatment.

IL-8 [2] = assay: Sandwich ELISA re-evaluation of seminal plasma IL-8 in trial patients; format: in vivo, human; details: 29 Compound A-treated vs 27 Placebo-treated patients, p=0.002
Source text: (§1) A sandwich ELISA system was used to re-evaluate seminal plasma IL-8 level in 27 Placebo-treated and 29 Compound A—treated patients from the trial described in Biological Example 5 and to extend the analysis to other inflammatory mediators. Note that TIMP-1 is an inhibitor of an inflammatory marker.

CCL2/MCP-1 = assay: Sandwich ELISA of seminal plasma CCL2/MCP-1 in trial patients; format: in vivo, human; details: CP/CPPS patients, treatment vs placebo
Source text: as §1

[3] = test system: matrix metalloproteinase MMP2; assay: Sandwich ELISA of seminal plasma MMP2 in trial patients; format: in vivo, human; details: CP/CPPS patients, treatment vs placebo
Source text: as §1

[4] = test system: soluble pattern recognition receptor PTX3; assay: Sandwich ELISA of seminal plasma PTX3 in trial patients; format: in vivo, human; details: CP/CPPS patients, treatment vs placebo
Source text: as §1

[5] = test system: tissue inhibitor of metalloproteinase TIM-1; assay: Sandwich ELISA of seminal plasma TIM-1 in trial patients; format: in vivo, human; details: CP/CPPS patients, treatment vs placebo
Source text: as §1

BPH cells = details: cited from earlier work

## C=C1/C(=C\C=C2/CCC[C@]3(C)C([C@@H](C)C/C=C/C(O)(CC)CC)=CC[C@@H]23)C[C@@H](O)C[C@@H]1F [Compound A, 1-alpha-fluoro-25-hydroxy-16,23E-diene-26,27-bishomo-20-epi-cholecalciferol]
Human BPH cells
  IL-8 production (IL-8 concentration): can lower IL-8 levels in vitro
IL-8 [1]; 150 mcg/die, after 12 weeks
  IL-8 levels in the semen vs. placebo: significantly reduce; also recorded: can lower seminal IL-8 levels in human patients
IL-8 [1]; 150 mcg/die, week 12
  Seminal IL-8, % Change vs Baseline Week 12, 25th perc.: −42.37%
  Seminal IL-8, % Change vs Baseline Week 12, 75th perc.: 1.05%
  Seminal IL-8, % Change vs Baseline Week 12, Max: 89.48%
  Seminal IL-8, % Change vs Baseline Week 12, Mean: −19.33%
  Seminal IL-8, % Change vs Baseline Week 12, Median: −19.17%
  Seminal IL-8, % Change vs Baseline Week 12, Min: −61.82%
  Seminal IL-8, Abs Change vs Baseline Week 12, 25th perc.: −723.00
  Seminal IL-8, Abs Change vs Baseline Week 12, 75th perc.: 12.50
  Seminal IL-8, Abs Change vs Baseline Week 12, Max: 604.00
  Seminal IL-8, Abs Change vs Baseline Week 12, Mean: −368.34
  Seminal IL-8, Abs Change vs Baseline Week 12, Median: −358.00
  Seminal IL-8, Abs Change vs Baseline Week 12, Min: −1264.00
  Seminal IL-8, Week 12, 25th perc.: 809.50
  Seminal IL-8, Week 12, 75th perc.: 1394.00
  Seminal IL-8, Week 12, Max: 2599.00
  Seminal IL-8, Week 12, Mean: 1172.57
  Seminal IL-8, Week 12, Median: 985.50
  Seminal IL-8, Week 12, Min: 386.00
IL-8 [1]; before treatment
  Seminal IL-8, Baseline, 25th perc.: 947.50
  Seminal IL-8, Baseline, 75th perc.: 1903.50
  Seminal IL-8, Baseline, Max: 3015.00
  Seminal IL-8, Baseline, Mean: 1486.43
  Seminal IL-8, Baseline, Median: 1376.50
  Seminal IL-8, Baseline, Min: 468.00
IL-8 [2]
  seminal plasma IL-8 levels compared to placebo: Significantly reduced
CCL2/MCP-1
  CCL2/MCP-1 level in seminal plasma: decreased
[3]
  MMP2 level in seminal plasma: decreased
[4]
  PTX3 level in seminal plasma: decreased
[5]
  TIM-1 level in seminal plasma: enhanced

## C=C1CC[C@H](O)C/C1=C/C=C1\CCC[C@]2(C)[C@@H]([C@H](C)CCCC(C)C)CC[C@@H]12 [vitamin D3, 9,10-secocholesta-5,7,10(19)-trien-3B-ol]
BPH cells
  BPH cell proliferation: inhibited
BPH cells; keratinocyte growth factor (KGF) and insulin-like growth factor (IGF1)
  mitogenic activity of growth factors for BPH cells: counteracted
